Where no end group is shown, it is not given here.
What follows are compounds tested on sheep erythrocytes (assay: Hemolysis assay: decrease in absorbance). Settings: grouped as hemolytic (yes) or non-hemolytic (no).
Assay type: cell-based

Compound	Hemolytic
CC[C@H](C)[C@H](NC(=O)[C@H](Cc1c[nH]c2ccccc12)NC(=O)[C@H](CCCCN)NC(=O)[C@@H](NC(=O)[C@H](CC(C)C)NC(=O)[C@H](CCCCN)NC(=O)CNC(=O)[C@@H](NC(=O)[C@@H](NC(=O)[C@H](CO)NC(=O)[C@@H](NC(=O)[C@@H](NC(=O)[C@H](CCCCN)NC(=O)[C@H](CCC(N)=O)NC(=O)[C@H](C)NC(=O)[C@H](CCSC)NC=O)[C@@H](C)CC)[C@@H](C)CC)[C@@H](C)O)[C@@H](C)CC)C(C)C)C(=O)N[C@H](C(=O)N[C@@H](CCCCN)C(=O)N[C@H](C(=O)N[C@H](C(=O)N[C@@H](CC(N)=O)C(=O)N[C@@H](CCCCN)C(=O)N[C@@H](Cc1ccccc1)C(=O)N[C@H](C(=O)N[C@@H](CCCCN)C(=O)N[C@@H](CCCCN)C(=O)O)[C@@H](C)O)C(C)C)[C@@H](C)O)[C@@H](C)CC (racemic) [DL-1]	yes
CC(C)C[C@H](NC=O)C(=O)N[C@@H](C)C(=O)N[C@@H](C)C(=O)N[C@@H](CC(=O)O)C(=O)N[C@@H](CC(C)C)C(=O)N[C@@H](CC(C)C)C(=O)N[C@@H](C)C(=O)N[C@@H](C)C(=O)N[C@@H](CC(C)C)C(=O)NCC(=O)N[C@@H](CC(=O)O)C(=O)N[C@@H](CC(C)C)C(=O)N[C@@H](C)C(=O)N[C@@H](CCCCN)C(=O)N[C@@H](Cc1c[nH]c2ccccc12)C(=O)N[C@@H](CC(C)C)C(=O)N[C@@H](CC(C)C)C(=O)N[C@@H](CC(=O)O)C(=O)N[C@@H](C)C(=O)N[C@@H](CC(C)C)C(=O)N[C@@H](C)C(=O)N[C@@H](CCCCN)C(=O)N[C@@H](C)C(=O)N[C@@H](C)C(=O)N[C@@H](CCCCN)C(=O)N[C@@H](CCCCN)C(=O)O (racemic) [DL-2a]	yes
CC[C@H](C)[C@H](NC(=O)[C@H](CCCCN)NC(=O)[C@H](CCCCN)NC(=O)[C@H](C)NC(=O)[C@H](CC(C)C)NC(=O)[C@H](C)NC(=O)[C@H](C)NC(=O)[C@H](CC(C)C)NC(=O)[C@H](C)NC(=O)[C@H](CCCCN)NC(=O)[C@H](CC(C)C)NC(=O)[C@H](CC(N)=O)NC(=O)[C@@H](NC(=O)[C@H](CCCCN)NC(=O)CNC(=O)[C@H](CC(C)C)NC(=O)[C@H](CC(C)C)NC(=O)[C@H](Cc1c[nH]c2ccccc12)NC(=O)CNC(=O)[C@H](C)N)[C@@H](C)CC)C(=O)N[C@@H](CC(C)C)C(N)=O [TP10W]	yes
CC[C@H](C)[C@H](NC(=O)[C@H](Cc1c[nH]c2ccccc12)NC(=O)[C@H](CCCCN)NC(=O)[C@@H](NC(=O)[C@H](CC(C)C)NC(=O)[C@H](CC(=O)O)NC(=O)CNC(=O)[C@@H](NC(=O)[C@@H](NC(=O)[C@H](CO)NC(=O)[C@@H](NC(=O)[C@@H](NC(=O)[C@H](CC(=O)O)NC(=O)[C@H](CCC(N)=O)NC(=O)[C@H](C)NC(=O)[C@H](CCSC)NC=O)[C@@H](C)CC)[C@@H](C)CC)[C@@H](C)O)[C@@H](C)CC)C(C)C)C(=O)N[C@H](C(=O)N[C@@H](CC(=O)O)C(=O)N[C@H](C(=O)N[C@H](C(=O)N[C@@H](CC(N)=O)C(=O)N[C@@H](CCCCN)C(=O)N[C@@H](Cc1ccccc1)C(=O)N[C@H](C(=O)N[C@@H](CCCCN)C(=O)N[C@@H](CCCCN)C(=O)O)[C@@H](C)O)C(C)C)[C@@H](C)O)[C@@H](C)CC [δ-Lysin, reference compound]	yes
AGWLLGDINLDALAALAKKIL-NH2 [TPW-1]	yes
AGWLLGDINLKALAALAKKIL-NH2 [TPW-3]	yes
AGWLLGKLALKALAALAKKLL-NH2 [TPW-2]	yes
GILKFLESAKKWLEAFLAEIMNS [MG-1]	yes
GLGKLLHAAKKLGKAWLGELLAA [MG-2]	yes
KWKLLKKLEKAGAALKEGLLKAGPALALLGAAAALAK-NH2 [CE-2]	yes

— PMC3584441 (The Journal of membrane biology, 2013)
